Target: Sodium- and chloride-dependent creatine transporter 1 (Homo sapiens) (UniProt P48029)
Experiment: SLC6A8 creatine transport substrate activity, dose response, cell-based, membrane potential dye, HEK-293 JumpIN, SLC6A8 overexpression (AID 1794823)
Conditions: HEK-293 JumpIN SLC6A8, FLIPR membrane potential fluorescence

Sodium- and chloride-dependent creatine transporter 1 (Homo sapiens), sequence (P48029 whole entry, looked up): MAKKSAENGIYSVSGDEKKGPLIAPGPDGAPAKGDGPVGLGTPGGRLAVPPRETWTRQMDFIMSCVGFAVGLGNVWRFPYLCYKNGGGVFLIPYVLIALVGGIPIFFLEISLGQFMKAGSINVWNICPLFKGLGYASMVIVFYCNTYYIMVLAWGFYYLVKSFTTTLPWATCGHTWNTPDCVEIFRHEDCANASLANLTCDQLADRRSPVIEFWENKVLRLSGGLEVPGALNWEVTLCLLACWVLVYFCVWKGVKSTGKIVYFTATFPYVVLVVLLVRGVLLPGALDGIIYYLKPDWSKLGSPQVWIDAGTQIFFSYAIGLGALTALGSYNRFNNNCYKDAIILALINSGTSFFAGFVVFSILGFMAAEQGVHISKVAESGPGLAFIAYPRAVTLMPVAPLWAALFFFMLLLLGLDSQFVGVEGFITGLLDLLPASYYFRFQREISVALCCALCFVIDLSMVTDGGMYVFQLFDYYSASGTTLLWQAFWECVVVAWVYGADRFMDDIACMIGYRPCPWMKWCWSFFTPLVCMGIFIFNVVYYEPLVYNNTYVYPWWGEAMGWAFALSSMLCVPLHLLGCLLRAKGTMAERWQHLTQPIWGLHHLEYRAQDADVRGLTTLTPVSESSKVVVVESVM

EC50: 5 µM
SMILES: CN(CC(=O)O)C(=N)N

From PubChem BioAssay AID1794823
